# Assay results from ChEMBL document CHEMBL1155927, “Synthesis and evaluation of 5'-modified 2'-deoxyadenosine analogues as anti-hepatitis C virus agents” (Bioorg Med Chem Lett, 2008).
# pEC50: −log10 of the molar value.
# Test system: Hepatitis C virus
# Experiment: Antiviral activity against HCV assessed as inhibition of viral RNA replication in Huh7 cells
# Assay type: functional, organism-based, Hepacivirus hominis
# Settings: Huh-7
row,SMILES,pEC50
1,CON(C)C(=O)CC[C@H]1O[C@@H](n2cnc3c(Cl)ncnc32)C[C@@H]1O,4.39
2,O=C(CC[C@H]1O[C@@H](n2cnc3c(Cl)ncnc32)C[C@@H]1O)c1ccccc1,4.82
3,Nc1ncnc2c1ncn2[C@H]1C[C@H](O)[C@@H](CCC(=O)c2ccccc2)O1,< 3.70
4,CON(C)C(=O)CC[C@H]1O[C@@H](n2cnc3c(N)ncnc32)C[C@@H]1O,< 3.70
5,COC(=O)CC[C@H]1O[C@@H](n2cnc3c(Cl)ncnc32)C[C@@H]1O,4.48
6,COC(=O)CC[C@H]1O[C@@H](n2cnc3c(N)ncnc32)C[C@@H]1O,< 3.70

# Test system: not listed separately
# Experiment: Cytotoxicity in human Huh7 cells by XTT assay
# Assay type: cell-based, Huh-7
# Settings: not given
row,SMILES,CC50 [µM]
1,CON(C)C(=O)CC[C@H]1O[C@@H](n2cnc3c(Cl)ncnc32)C[C@@H]1O,> 200
2,O=C(CC[C@H]1O[C@@H](n2cnc3c(Cl)ncnc32)C[C@@H]1O)c1ccccc1,76.3
3,COC(=O)CC[C@H]1O[C@@H](n2cnc3c(Cl)ncnc32)C[C@@H]1O,> 200
